The target of this assay is T1, PPARγ (Homo sapiens, UniProt P37231).
T1 construct: gene PPARG
T1 sequence (P37231 235-505 limits assumed): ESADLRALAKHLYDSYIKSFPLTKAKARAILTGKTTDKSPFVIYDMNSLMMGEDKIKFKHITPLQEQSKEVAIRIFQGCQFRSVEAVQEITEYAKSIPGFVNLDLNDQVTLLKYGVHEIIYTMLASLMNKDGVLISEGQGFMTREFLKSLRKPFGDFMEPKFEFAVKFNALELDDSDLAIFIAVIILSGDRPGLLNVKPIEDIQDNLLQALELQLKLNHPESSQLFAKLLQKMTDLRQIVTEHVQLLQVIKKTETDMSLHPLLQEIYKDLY
As to the kind of experiment: LanthaScreen TR-FRET competitive binding assay (displacement of Fluormone Pan-PPAR Green).

For orientation: IC50 means the concentration that inhibits the measured activity by half. Lower therefore signals greater potency in that assay. As to `CCCCCCCC/C=C\CCCCCCCC(=O)O` [Oleic acid], the IC50 is 16.6 µM. For the compound `COc1cc(O)c(CCC(C)C)c(O)c1C(=O)CCc1ccc(O)cc1` [TXN, Tetrahydroxanthohumol], the 50% inhibitory concentration (IC50) was 1.38 µM. This IC50 lies about 12-fold lower than the previous one.

`COc1cc(O)c(CC=C(C)C)c(O)c1C(=O)/C=C/c1ccc(O)cc1` [XN, Xanthohumol] registered an IC50 of 1.97 µM.
